How the values were obtained:
LDL = experiment: LDL-antioxidant activity by TBARS (Cu2+-mediated LDL-oxidation); assay type: biochemical, human
Protocol: Ed., Methods in Enzymology. Vol. 234, Oxygen radicals in biological systems Part D. Academic press, San Diego, 1994]. Three hundred ml of human plasma was taken, followed by centrifugation at 100,000×g for 24 hours with an ultracentrifuge. VLDL/chylomicrom layer floating in the supernatant was eliminated. […] At that time, the compounds were dissolved in dimethylsulfoxide (DMSO) and diluted at different concentrations to be ready for the experiment. DMSO alone was used as a negative control. As a positive control, probucol, a known antioxidant, was added. To each solution was added 10 μl of 0.25 mM CuSO4, followed by reaction at 37° C. for 4 hours. The reaction was terminated by addition of 1 ml of 20% trichloroacetic acid (TCA) solution. 1 ml of 0.67% TBA solution dissolved in 0.05 N NaOH solution was added thereto, followed by stirring for 10 seconds. The solution was heated at 95° C. for 5 minutes to induce color development and then cooled down with ice water. The solution was centrifuged at 3000 rpm for 5 minutes to separate the supernatant and OD540 was measured with UV/VIS spectrophotometer to measure the level of malondialdehyde (MDA) generated by the color development. In the meantime, to calculate the standard curve of malondialdehyde, the stock solution of malonaldehyde bis (dimethylacetal) was diluted, resulting in PBS standard solution containing 0˜10 nmol malondialdehyde. […] The malondialdehyde generated from the compounds of the invention was quantified and inhibitory activity and IC50 were also calculated.

hACAT-1 = target: T1, hACAT-1 (Homo sapiens, UniProt P35610); experiment: ACAT activity, hACAT-1 microsomes, [1-14C]oleoyl-CoA; assay type: biochemical; conditions: 100 μg/ml; read-out: Inhibitory activity (%) hACAT-1
T1 construct: made in house; host or cells: baculovirus; virus produced in sf9, protein expressed in Hi5 insect cells; microsome fraction used
T1 sequence (P35610 1-550): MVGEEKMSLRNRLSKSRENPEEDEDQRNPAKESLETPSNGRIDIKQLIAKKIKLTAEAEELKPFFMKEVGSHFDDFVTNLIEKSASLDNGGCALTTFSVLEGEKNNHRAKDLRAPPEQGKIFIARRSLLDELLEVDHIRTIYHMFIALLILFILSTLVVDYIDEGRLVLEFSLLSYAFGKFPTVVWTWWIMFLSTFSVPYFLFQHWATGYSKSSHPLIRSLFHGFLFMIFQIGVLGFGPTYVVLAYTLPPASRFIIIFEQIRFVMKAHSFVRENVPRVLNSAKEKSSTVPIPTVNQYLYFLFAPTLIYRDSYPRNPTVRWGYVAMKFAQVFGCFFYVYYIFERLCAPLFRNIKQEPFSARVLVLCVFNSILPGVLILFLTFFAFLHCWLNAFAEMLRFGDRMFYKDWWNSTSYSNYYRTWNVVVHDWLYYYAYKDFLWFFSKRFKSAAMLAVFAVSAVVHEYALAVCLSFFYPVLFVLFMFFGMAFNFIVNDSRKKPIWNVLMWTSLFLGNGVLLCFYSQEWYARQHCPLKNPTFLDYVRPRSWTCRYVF
Source text: (§1) To investigate the effect on human ACAT-1 and ACAT-2 activities, hACAT-1 and hACAT-2 proteins were obtained using baculovirus expression system.
(§2) hACAT-1 and hACAT-2 cDNAs, obtained by human liver cDNA library screening, were inserted into the baculovirus transfer vector, which was introduced into an insect cell line sf9 to produce virus. Then, recombinant virus of each hACAT-1 and hACAT-2 was separated by plaque purification, followed by amplification three times to raise titer of the viral stock. Hi5 insect cells having high protein expression efficiency were infected with the recombinant virus (1 multiplicity of infection), followed by shaking culture at 27° C. for a day. Centrifugation was performed at 500×g for 15 minutes to separate microsome fractions from Hi5 cells over-expressing hACAT-1 and hACAT-2. The resultant cells were lysed in a hypotonic buffer by quick freezing-quick thawing, followed by ultracentrifugation at 100,000×g for one hour. The obtained microsome fractions were suspended in the hypotonic buffer until the concentration of the protein reached 8 mg/ml, which was stored in a deep freezer until use.
(§3) To measure the ACAT activity, [1-^14C] oleoly-CoA (56.0 μCi/μmol; Amersham) was used as a substrate and a method of Brecher & Chan was used with a slight modification [P. Brecher and C. Chan, Biochem. Biophys. Acta, 617, 458, 1980].
(§4) Ten μl of the centipede extracts or the compound prepared in the above Example was mixed with 4.0 μl of the microsomal solution prepared in Experimental Example <2-1>, 20.0 μl of an activity analyzing buffer (0.5 M KH2PO4, 10 mM DTT, pH 7.4; Sigma), 15.0 μl of fatty acid-free bovine serum albumin (fatty acid-free BSA, stock concentration 40 mg/ml; Sigma), 2.0 μl of cholesterol (stock solution 20 mg/ml; Sigma) and 41.0 μl of distilled water, which was preincubated at 37° C. for 15 minutes. […] The radioactivity of the mixture was measured with 1450 Microbeta liquid scintillation counter (Wallacoy).
(§5) ACAT activity was calculated as pmol of cholesteryl oleate synthesized per 1 mg of protein in one minute (pmol/minute/mg of protein).

hACAT-2 = target: T2, hACAT-2 (Homo sapiens, UniProt O75908); experiment: ACAT activity, hACAT-2 microsomes, [1-14C]oleoyl-CoA; assay type: biochemical; conditions: 100 μg/ml; read-out: Inhibitory activity (%) hACAT-2
T2 construct: made in house; host or cells: baculovirus; virus produced in sf9, protein expressed in Hi5 insect cells; microsome fraction used
T2 sequence (O75908 1-522): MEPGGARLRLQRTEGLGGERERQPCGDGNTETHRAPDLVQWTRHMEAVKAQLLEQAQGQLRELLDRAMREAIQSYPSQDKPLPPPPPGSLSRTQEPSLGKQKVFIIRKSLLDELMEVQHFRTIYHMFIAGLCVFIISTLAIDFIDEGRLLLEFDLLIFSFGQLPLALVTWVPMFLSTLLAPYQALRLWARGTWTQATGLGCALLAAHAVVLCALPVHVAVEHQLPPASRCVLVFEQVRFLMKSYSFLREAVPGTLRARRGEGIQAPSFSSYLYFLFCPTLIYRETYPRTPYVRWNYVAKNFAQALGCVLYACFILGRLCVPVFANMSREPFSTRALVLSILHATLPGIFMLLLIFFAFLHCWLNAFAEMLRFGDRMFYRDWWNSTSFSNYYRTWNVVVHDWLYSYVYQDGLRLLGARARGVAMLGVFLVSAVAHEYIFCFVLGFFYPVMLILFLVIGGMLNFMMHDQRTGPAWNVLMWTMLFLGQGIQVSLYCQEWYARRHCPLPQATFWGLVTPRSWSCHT
Source text: as §1, §2, §3, §4, §5

| Compound | IC50 (LDL) [µM] | inhibition at 100 µg/mL (hACAT-1) [%] | inhibition at 100 µg/mL (hACAT-2) [%] |
| --- | --- | --- | --- |
| Oc1cnc2c(O)cccc2c1 [Compound 1, 3,8-dihydroxyquinoline] | 2.6 | 60 | 50 |
| CC(C)(Sc1cc(C(C)(C)C)c(O)c(C(C)(C)C)c1)Sc1cc(C(C)(C)C)c(O)c(C(C)(C)C)c1 [Probucol, probucol, reference compound] | 3.1 |  |  |
| CC(C)(C)c1ccc(O)c(C(C)(C)C)c1 [Compound 3, 2,4-di-tert-butylphenol] | 8.2 | 63 | 51 |
| COc1c(O)nc2c(O)cccc2c1OC [Compound 2, 3,4-dimethoxyquinoline-2,8-diol] | 63 | 79 | 58 |

— patent publication US8362034B2, “Quinoline compound, and composition containing centipede extract or compounds isolated therefrom for prevention and treatment of cardiovascular disease” (Korea Research Institute of Bioscience and Biotechnology, priority 2005, dated 2013)
